# Results reported in patent EP0738149B1 (priority 1994, dated 1995).
# Key:
# [1] = test system: mechanically dissociated neonatal rat cerebellum; assay: Reversal of NMDA induced cell death in cultures of neonatal rat cerebellum; format: cell-based; details: for SURVIVING CELL IN CULTURE: relative to control (100%); for PERCENT PROTECTION: Cell Survival minus the NMDA effect; for EFFECTIVE PROTECTION: X x 100/70
# How it was run: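 Cerebellar cells from 6–7-day rat pups on poly-L-lysine at 200/mm^2, grown 3 days (37°C, 5% CO2), then compound with NMDA challenge (1mM, 3 hours); spermine (0.01 micromoles) plus NMDA as positive control, duplicates. Survival by phase contrast and trypan blue after 24 hours; effective protection = percent protection ×100/70.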
# rats [2] = assay: Electrically kindled rat model of epilepsy, p.o.; format: in vivo; details: po, read-out: ED50 (prevented seizures)
# Source text: The rat electrical kindling model of epilepsy has been known to show efficacy of antiepileptic agents against complex partial seizures that evolve into generalized motor seizures. In these tests, rats were electrically stimulated via corneal electrodes twice daily for approximately 5 days and then once daily for an additional 10 days. Once the seizure criteria, as described by R.J. Racine, et al., Electroenceph. Clin. Neurophysiol. 32: 281-294 (1972), were met, the test substance was administered p.o. to rats, and the rat electrically stimulated, and observed for the presence or absence of a seizure.
# mice = assay: Maximal electroshock (MES) model in mice, i.p.;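 note: Electroshock-induced convulsion model serving to demonstrate antiepileptic efficacy against generalized and partial seizures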; format: in vivo; details: Mus musculus, ip, Table 15
# rats [3] = assay: Closed head injury in rats: motor function (Neurological Severity Status), Experiments 4A-4E
# hypoxia-lesioned rats = assay: Water maze working memory test in hypoxia-lesioned rats, Experiment 3B; format: in vivo, rat; details: 0.5mg/kg/day 60 days, ±SEM
# Source text: The apparatus used consists of a circular water tank 160cm in diameter filled with water to a depth of 38cm. The water was made cloudy by the addition of milk powder. A clear Plexiglass 15cm platform, supported by a movable stand rest on the bottom of the tank was submerged to a depth of 2cm from the water surface. Normally a swimming rat cannot perceive the location of the platform but it may recall it from a previous experience and training, unless it suffers from some memory impairment. The time taken to locate the platform is measured in seconds and referred to as the latency. During the experiment all orientational cues such as ceiling lights etc. remained unchanged. Longer latencies are observed with rats with some impairment to their memory.
# Each rat was given two trails a day for four days, entering the pool from the same point of entry each day. The position of the platform was changed daily to one of four predetermined positions. Each rat was tested twice each day over the four days, referred to as runs 1 and 2 on sessions I-IV. Initially the rat was placed on the platform for 60 seconds. It was then removed and placed at the point of entry and allowed a maximum of 120 seconds to locate the platform (run 1). The second run for that day followed 60 seconds later (run 2). In the second run the rat is expected to find the platform much sooner, having benefitted from its earlier experience. […] The average latency of run 1 in four sessions on four different days was then related to the corresponding parameter of run 2. The smaller the ratio of […], the better the short range learning score.
# Table 8. […] The data are the latencies in seconds±SEM that it took a given group to locate a submerged and invisible platform the location of which was shifted from one session to the other. The time interval between sessions was one day, and that between successive runs was 60 seconds. (n=7-8 rats per group) TABLE 8
# rats [4] = assay: Closed head injury in rats: brain oedema (water content), Experiments 4A-4E; format: in vivo; details: Exp 4A; relative to normal brain water content of 78.5 %
# Experimental: After the second evaluation of motor function, the animals were sacrificed and the brains were removed. A piece of tissue was weighed to yield a wet weight(WW), then dried in an oven for 24 hours at 95C and re-weighed to yield a dry weight(DW). Percentage water content in the tissue was calculated as (WW-DW)x100/WW.
# [5] = 0.005 µM + NMDA 1mM for 3 hours
# [6] = 0.010 µM + NMDA 1mM for 3 hours
# [7] = 0.100 µM + NMDA 1mM for 3 hours
# [8] = Exp 4A, 0.1mg/kg i.p. at 0,4,8 and 12 hours post-trauma
# [9] = Exp 4B, 0.1mg/kg once a day for 14 days
smiles,measurement,setting,value
"CC(=O)N[C@@H]1CCc2ccccc21 [Example 18, (R)-N-Acetyl-1-aminoindan]",SURVIVING CELL IN CULTURE,[1]; [5],80%
same,PERCENT PROTECTION,[1]; 0.005 µM + NMDA,50%
same,EFFECTIVE PROTECTION,[1]; 0.005 µM + NMDA,71%
same,SURVIVING CELL IN CULTURE,[1]; [6],80%
same,PERCENT PROTECTION,[1]; 0.010 µM + NMDA,50%
same,EFFECTIVE PROTECTION,[1]; 0.010 µM + NMDA,71%
same,SURVIVING CELL IN CULTURE,[1]; [7],55%
same,PERCENT PROTECTION,[1]; 0.100 µM + NMDA,25%
same,EFFECTIVE PROTECTION,[1]; 0.100 µM + NMDA,36%
same,SURVIVING CELL IN CULTURE,[1]; 1.000 µM + NMDA 1mM for 3 hours,47%
same,PERCENT PROTECTION,[1]; 1.000 µM + NMDA,17%
same,EFFECTIVE PROTECTION,[1]; 1.000 µM + NMDA,24%
same,SURVIVING CELL IN CULTURE,[1]; 5.000 µM + NMDA 1mM for 3 hours,32%
same,PERCENT PROTECTION,[1]; 5.000 µM + NMDA,2%
same,EFFECTIVE PROTECTION,[1]; 5.000 µM + NMDA,3%
same,ED50,rats [2],24.6 mg/kg
same,ED50,mice,31 mg/kg
"N[C@@H]1CCc2ccccc21 [R-AI, (R)-1-aminoindan]",SURVIVING CELL IN CULTURE,[1]; [5],80%
same,PERCENT PROTECTION,[1]; 0.005 µM + NMDA,50%
same,EFFECTIVE PROTECTION,[1]; 0.005 µM + NMDA,71%
same,SURVIVING CELL IN CULTURE,[1]; [6],30%
same,PERCENT PROTECTION,[1]; 0.010 µM + NMDA,0%
same,EFFECTIVE PROTECTION,[1]; 0.010 µM + NMDA,0%
same,SURVIVING CELL IN CULTURE,[1]; [7],28%
same,PERCENT PROTECTION,[1]; 0.100 µM + NMDA,-2%
same,NSS 1hr,rats [3]; [8],16.8
same,NSS 24hr,rats [3]; [8],8.3
same,ΔNSS,"rats [3]; Exp 4A, 0.1mg/kg i.p. at 0,4,8 and 12 hours post-trauma, change 1 hour to 24 hours",8.5±0.5
same,NSS at 1hr,rats [3]; [9],17.7±0.5
same,ΔNSS at 24hr,rats [3]; [9],7.3±0.8
same,ΔNSS at 48hr,rats [3]; [9],9.3±0.8
same,ΔNSS at 7d,rats [3]; [9],11.8±0.5
same,ΔNSS at 14d,rats [3]; [9],14.0±0.4
same,NSS 1hr,"rats [3]; Exp 4C, 0.03 mg/kg",16.3
same,NSS 24hr,"rats [3]; Exp 4C, 0.03 mg/kg",10.4
same,ΔNSS,"rats [3]; Exp 4C, 0.03 mg/kg",5.9±0.3
same,NSS 1hr,"rats [3]; Exp 4C, 0.1 mg/kg",16.2
same,NSS 24hr,"rats [3]; Exp 4C, 0.1 mg/kg",10.4
same,ΔNSS,"rats [3]; Exp 4C, 0.1 mg/kg",5.8±0.4
same,NSS 1hr,"rats [3]; Exp 4C, 0.3 mg/kg",16.6
same,NSS 24hr,"rats [3]; Exp 4C, 0.3 mg/kg",8.5
same,ΔNSS,"rats [3]; Exp 4C, 0.3 mg/kg",8.1±0.5
same,NSS 1hr,"rats [3]; Exp 4C, 1.0 mg/kg",16.8
same,NSS 24hr,"rats [3]; Exp 4C, 1.0 mg/kg",8.8
same,ΔNSS,"rats [3]; Exp 4C, 1.0 mg/kg",8.0±0.5
same,NSS 1hr,"rats [3]; Exp 4C, 3.0 mg/kg",16.4
same,NSS 24hr,"rats [3]; Exp 4C, 3.0 mg/kg",7.8
same,ΔNSS,"rats [3]; Exp 4C, 3.0 mg/kg",8.6±0.7
same,ΔNSS,"rats [3]; Exp 4D, 1mg/kg, times of administration 0",8.8±10.8
same,ΔNSS,"rats [3]; Exp 4D, 1mg/kg, times of administration 0 + 4h",8.0±1.0
same,ΔNSS,"rats [3]; Exp 4D, 1mg/kg, times of administration 0 + 8h",8.0±0.1
same,ΔNSS,"rats [3]; Exp 4D, 1mg/kg, times of administration 0 + 12h",8.7±0.6
same,ΔNSS,"rats [3]; Exp 4D, 1mg/kg, times of administration 0,4,8,12h",8.2±0.7
same,ΔNSS,"rats [3]; Exp 4E, 1mg/kg given + 1h post head trauma",8.4±0.6
same,ΔNSS,"rats [3]; Exp 4E, 1mg/kg given + 2h post head trauma",7.0±0.5
same,ΔNSS,"rats [3]; Exp 4E, 1mg/kg given + 3h post head trauma",7.4±0.5
same,latency to locate submerged platform,hypoxia-lesioned rats; Session I Run 1,50 ± 16 s
same,latency to locate submerged platform,hypoxia-lesioned rats; Session I Run 2,25 ± 12 s
same,latency to locate submerged platform,hypoxia-lesioned rats; Session II Run 1,25 ± 8 s
same,latency to locate submerged platform,hypoxia-lesioned rats; Session II Run 2,14 ± 3 s
same,latency to locate submerged platform,hypoxia-lesioned rats; Session III Run 1,19 ± 5 s
same,latency to locate submerged platform,hypoxia-lesioned rats; Session III Run 2,14 ± 3 s
same,latency to locate submerged platform,hypoxia-lesioned rats; Session IV Run 1,15 ± 5 s
same,latency to locate submerged platform,hypoxia-lesioned rats; Session IV Run 2,6 ± 2 s
same,reduction in trauma-induced oedema,rats [4],50%
C#CCN(C)[C@H](C)Cc1ccccc1 [deprenyl],latency to locate submerged platform,hypoxia-lesioned rats; Session I Run 1,42 ± 16 s
same,latency to locate submerged platform,hypoxia-lesioned rats; Session I Run 2,40 ± 17 s
same,latency to locate submerged platform,hypoxia-lesioned rats; Session II Run 1,42 ± 18 s
same,latency to locate submerged platform,hypoxia-lesioned rats; Session II Run 2,35 ± 16 s
same,latency to locate submerged platform,hypoxia-lesioned rats; Session III Run 1,32 ± 15 s
same,latency to locate submerged platform,hypoxia-lesioned rats; Session III Run 2,8 ± 2 s
same,latency to locate submerged platform,hypoxia-lesioned rats; Session IV Run 1,19 ± 6 s
same,latency to locate submerged platform,hypoxia-lesioned rats; Session IV Run 2,12 ± 4 s
